# Experimental data: PMC3914206
# Key:
# panel of 442 kinases [1] = target: T1, panel of 442 kinases (Homo sapiens, UniProt Q9UKE5); type: binding; conditions: kinase TNIK; compound concentration 10 µM
# T1 construct: purchased KINOMEscan
# Description: (§1) We assessed the selectivity of members of this scaffold using the KINOMEscan methodology across a near comprehensive panel of 442 kinases [[18,27]].
# panel of 442 kinases [2] = target: T2, panel of 442 kinases (Homo sapiens, UniProt Q9UQ88); type: binding; conditions: Compound Concentration 10 µM
# T2 construct: purchased KINOMEscan
# T2 sequence (Q9UQ88 1-783): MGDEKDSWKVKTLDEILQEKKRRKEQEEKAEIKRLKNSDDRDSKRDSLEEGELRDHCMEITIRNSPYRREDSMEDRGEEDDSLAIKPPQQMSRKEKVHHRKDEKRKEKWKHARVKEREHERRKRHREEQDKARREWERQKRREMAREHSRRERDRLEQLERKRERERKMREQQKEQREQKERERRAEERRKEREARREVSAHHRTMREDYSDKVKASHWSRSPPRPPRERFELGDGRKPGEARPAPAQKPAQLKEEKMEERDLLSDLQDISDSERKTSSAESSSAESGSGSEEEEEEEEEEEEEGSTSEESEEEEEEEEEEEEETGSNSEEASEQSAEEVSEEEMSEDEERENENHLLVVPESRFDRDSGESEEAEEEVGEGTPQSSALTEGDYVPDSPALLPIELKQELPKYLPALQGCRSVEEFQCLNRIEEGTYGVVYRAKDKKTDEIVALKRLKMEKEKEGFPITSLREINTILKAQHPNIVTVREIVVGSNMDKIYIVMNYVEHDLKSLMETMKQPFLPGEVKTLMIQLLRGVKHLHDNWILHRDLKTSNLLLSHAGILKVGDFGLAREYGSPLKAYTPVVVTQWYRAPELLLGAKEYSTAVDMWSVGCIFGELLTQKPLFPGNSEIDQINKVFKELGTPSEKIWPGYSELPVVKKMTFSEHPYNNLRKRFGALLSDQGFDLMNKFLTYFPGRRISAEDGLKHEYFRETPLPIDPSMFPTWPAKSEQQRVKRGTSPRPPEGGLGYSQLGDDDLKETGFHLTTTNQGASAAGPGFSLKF
# Description: as §1
# T1 sequence (Q9UKE5 whole entry): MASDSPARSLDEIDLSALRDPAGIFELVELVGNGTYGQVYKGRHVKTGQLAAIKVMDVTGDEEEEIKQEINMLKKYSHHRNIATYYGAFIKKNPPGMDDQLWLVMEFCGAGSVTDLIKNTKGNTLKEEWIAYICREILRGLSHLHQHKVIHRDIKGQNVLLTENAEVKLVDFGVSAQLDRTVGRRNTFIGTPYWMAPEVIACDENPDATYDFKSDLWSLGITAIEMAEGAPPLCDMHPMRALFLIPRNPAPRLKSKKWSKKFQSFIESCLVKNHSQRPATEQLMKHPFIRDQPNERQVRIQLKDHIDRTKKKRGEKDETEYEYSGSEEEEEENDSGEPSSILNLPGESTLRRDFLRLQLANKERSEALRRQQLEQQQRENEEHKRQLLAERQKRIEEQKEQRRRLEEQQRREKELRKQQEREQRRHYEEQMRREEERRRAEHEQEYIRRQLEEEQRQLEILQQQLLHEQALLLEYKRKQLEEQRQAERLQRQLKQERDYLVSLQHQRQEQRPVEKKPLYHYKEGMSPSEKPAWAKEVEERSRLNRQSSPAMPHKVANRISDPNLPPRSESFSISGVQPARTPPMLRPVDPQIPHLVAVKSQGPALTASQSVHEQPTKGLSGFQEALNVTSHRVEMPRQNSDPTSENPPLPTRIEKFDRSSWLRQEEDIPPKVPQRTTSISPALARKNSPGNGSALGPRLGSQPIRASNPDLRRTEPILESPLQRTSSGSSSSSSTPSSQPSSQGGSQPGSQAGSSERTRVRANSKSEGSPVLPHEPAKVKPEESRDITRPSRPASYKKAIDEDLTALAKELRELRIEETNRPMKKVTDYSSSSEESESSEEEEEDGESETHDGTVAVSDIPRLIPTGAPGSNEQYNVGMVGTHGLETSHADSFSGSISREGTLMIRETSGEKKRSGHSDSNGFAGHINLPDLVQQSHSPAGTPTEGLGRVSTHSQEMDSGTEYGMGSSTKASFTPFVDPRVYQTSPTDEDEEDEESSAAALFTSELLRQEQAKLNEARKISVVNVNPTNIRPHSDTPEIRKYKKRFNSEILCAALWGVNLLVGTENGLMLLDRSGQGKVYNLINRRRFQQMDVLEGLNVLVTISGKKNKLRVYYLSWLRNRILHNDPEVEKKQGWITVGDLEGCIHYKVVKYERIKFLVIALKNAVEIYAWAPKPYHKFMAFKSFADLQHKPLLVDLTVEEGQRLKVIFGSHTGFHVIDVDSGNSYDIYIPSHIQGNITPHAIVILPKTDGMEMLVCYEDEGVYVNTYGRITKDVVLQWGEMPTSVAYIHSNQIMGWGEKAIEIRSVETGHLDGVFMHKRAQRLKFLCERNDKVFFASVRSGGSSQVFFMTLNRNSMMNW
Compound,"% Ctrl, TNIK (panel of 442 kinases [1])",KINOMEscan: CDC2L2 (panel of 442 kinases [2])
"COc1cc(C(=O)N2CCC(N3CCN(C)CC3)CC2)ccc1Nc1ncc2c(n1)N(C1CCCC1)c1ccccc1C(=O)N2C [Compound 25, 11-cyclopentyl-2-((2-methoxy-4-(4-(4-methylpiperazin-1-yl)piperidine-1-carbonyl)phenyl)amino)-5-methyl-5H-benzo[e]pyrimido[5,4-b][1,4]diazepin-6(11H)-one]",100 % Ctrl,100
CCOc1cc(C(=O)N2CCC(N3CCN(C)CC3)CC2)ccc1Nc1ncc2c(n1)N(C1CCCC1)c1ccccc1C(=O)N2C [Compound 26],94 % Ctrl,100
COc1cc(C(=O)N2CCC(N3CCN(C)CC3)CC2)ccc1Nc1ncc2c(n1)N1CCc3cccc(c31)C(=O)N2C [Compound 24],56 % Ctrl,
COc1cc(C(=O)N2CCC(N3CCN(C)CC3)CC2)ccc1Nc1ncc2c(n1)N(C)c1ccccc1C(=O)N2C [15 (LRRK2-IN-1)],100 % Ctrl,82
